ChEMBL document CHEMBL4152382, “Discovery of Tarantula Venom-Derived NaV1.7-Inhibitory JzTx-V Peptide 5-Br-Trp24 Analogue AM-6120 with Systemic Block of Histamine-Induced Pruritis” (J Med Chem, 2018)

Legend:
[1] = molecular target: Sodium channel protein type 9 subunit alpha (Homo sapiens, UniProt Q15858); assay: Inhibition of human Nav1.7 expressed in HEK293 cells at holding potential of -125 mV […] by patchxpress-based electrophysiology assay; assay type: cell-based
[2] = molecular target: Sodium channel protein type 4 subunit alpha (Homo sapiens, UniProt P35499); assay: Inhibition of human Nav1.4 expressed in HEK293 cells at holding potential of -125 mV […] by patchxpress-based electrophysiology assay; assay type: cell-based
Chain of Sodium channel protein type 4 subunit alpha (P35499 whole entry): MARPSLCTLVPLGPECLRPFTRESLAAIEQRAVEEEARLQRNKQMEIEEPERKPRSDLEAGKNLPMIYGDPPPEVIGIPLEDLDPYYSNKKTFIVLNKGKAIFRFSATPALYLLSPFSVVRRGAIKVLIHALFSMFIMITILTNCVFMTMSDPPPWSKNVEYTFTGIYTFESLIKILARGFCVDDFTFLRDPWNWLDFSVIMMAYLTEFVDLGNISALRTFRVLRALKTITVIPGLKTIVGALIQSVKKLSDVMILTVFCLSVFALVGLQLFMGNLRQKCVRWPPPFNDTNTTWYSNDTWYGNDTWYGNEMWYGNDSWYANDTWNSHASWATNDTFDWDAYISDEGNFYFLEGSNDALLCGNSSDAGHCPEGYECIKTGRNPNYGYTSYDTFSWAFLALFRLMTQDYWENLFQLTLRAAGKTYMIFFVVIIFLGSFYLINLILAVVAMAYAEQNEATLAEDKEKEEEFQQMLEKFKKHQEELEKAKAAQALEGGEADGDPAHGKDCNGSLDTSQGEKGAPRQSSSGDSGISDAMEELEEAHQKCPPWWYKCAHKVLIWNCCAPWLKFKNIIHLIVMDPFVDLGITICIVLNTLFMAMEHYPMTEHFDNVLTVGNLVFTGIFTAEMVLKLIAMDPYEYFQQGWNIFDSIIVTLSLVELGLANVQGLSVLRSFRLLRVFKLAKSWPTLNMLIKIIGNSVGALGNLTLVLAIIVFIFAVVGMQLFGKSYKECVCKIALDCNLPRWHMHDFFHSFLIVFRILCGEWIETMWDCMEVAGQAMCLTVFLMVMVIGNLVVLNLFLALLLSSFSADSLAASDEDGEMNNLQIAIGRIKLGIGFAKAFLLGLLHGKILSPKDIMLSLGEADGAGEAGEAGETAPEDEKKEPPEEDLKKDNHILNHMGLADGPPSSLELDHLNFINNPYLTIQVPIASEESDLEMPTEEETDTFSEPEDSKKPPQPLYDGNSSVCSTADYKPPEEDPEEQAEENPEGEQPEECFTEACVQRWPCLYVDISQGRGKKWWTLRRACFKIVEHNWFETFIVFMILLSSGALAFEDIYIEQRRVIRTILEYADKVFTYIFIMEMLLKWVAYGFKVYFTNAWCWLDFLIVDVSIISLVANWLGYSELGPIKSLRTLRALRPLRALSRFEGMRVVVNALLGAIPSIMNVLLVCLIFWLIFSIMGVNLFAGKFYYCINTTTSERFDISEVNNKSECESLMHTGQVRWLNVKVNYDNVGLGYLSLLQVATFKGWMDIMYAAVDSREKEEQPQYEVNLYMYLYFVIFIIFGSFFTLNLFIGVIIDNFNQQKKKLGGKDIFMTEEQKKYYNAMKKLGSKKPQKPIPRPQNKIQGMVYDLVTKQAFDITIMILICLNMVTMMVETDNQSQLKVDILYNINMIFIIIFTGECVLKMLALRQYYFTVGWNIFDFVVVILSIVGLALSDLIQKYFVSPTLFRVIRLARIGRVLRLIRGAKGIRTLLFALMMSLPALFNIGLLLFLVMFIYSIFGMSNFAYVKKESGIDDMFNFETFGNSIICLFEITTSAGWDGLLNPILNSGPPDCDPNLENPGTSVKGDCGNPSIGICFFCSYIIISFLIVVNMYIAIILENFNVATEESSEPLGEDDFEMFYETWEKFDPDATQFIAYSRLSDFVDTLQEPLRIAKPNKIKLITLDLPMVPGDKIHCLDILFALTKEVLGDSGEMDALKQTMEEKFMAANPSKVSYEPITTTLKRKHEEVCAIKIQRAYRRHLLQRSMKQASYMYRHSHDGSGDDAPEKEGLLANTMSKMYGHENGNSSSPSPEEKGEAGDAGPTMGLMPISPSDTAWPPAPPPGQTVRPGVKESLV

Chain of Sodium channel protein type 9 subunit alpha (Q15858 whole entry): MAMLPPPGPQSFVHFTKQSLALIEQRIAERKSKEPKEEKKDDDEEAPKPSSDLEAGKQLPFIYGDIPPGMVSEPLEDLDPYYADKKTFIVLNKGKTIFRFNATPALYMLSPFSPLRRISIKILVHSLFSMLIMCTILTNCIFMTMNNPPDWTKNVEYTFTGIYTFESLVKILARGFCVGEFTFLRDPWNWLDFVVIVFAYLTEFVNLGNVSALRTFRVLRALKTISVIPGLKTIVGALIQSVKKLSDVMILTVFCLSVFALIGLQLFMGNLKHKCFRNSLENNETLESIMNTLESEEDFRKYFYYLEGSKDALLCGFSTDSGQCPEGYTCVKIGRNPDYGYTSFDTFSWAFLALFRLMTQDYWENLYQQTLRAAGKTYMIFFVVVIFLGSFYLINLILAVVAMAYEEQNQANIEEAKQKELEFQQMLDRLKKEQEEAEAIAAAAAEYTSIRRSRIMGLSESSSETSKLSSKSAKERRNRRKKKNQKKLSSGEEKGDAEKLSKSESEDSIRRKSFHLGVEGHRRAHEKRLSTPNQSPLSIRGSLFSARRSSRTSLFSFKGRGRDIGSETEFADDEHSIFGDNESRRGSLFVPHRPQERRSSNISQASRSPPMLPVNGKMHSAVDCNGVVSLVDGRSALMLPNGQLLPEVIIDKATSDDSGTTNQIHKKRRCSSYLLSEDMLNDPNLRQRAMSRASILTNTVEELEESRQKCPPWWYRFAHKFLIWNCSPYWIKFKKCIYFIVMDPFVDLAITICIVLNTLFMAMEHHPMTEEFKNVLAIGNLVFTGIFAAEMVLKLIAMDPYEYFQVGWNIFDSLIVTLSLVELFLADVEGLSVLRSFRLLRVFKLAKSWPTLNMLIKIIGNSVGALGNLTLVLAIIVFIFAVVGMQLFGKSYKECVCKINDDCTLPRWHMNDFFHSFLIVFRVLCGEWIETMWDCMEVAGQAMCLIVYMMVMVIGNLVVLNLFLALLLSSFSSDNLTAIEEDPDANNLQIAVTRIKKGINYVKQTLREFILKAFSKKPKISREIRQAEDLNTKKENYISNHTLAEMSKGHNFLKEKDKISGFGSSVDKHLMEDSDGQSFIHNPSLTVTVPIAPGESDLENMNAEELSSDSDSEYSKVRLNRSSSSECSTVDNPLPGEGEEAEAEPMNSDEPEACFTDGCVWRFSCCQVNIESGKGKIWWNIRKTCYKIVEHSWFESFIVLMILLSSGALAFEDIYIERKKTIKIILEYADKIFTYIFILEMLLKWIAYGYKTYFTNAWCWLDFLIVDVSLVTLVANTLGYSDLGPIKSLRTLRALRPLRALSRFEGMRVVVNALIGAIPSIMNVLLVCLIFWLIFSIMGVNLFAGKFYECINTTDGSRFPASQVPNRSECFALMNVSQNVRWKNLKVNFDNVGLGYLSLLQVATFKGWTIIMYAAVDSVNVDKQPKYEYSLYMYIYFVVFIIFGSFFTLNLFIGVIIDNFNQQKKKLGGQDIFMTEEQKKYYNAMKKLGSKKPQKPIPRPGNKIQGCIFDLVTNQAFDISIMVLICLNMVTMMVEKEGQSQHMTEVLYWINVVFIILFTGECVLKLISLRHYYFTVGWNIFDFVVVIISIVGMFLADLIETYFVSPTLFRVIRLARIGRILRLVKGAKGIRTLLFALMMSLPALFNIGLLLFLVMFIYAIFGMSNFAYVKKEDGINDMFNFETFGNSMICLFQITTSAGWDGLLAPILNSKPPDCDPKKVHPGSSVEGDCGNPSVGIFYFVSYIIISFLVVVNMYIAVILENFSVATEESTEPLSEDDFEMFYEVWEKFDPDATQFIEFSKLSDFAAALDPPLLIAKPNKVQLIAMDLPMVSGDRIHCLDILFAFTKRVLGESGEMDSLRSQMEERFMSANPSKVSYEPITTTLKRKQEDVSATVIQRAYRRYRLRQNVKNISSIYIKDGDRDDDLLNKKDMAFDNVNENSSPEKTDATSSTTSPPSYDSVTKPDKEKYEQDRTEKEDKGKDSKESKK

| SMILES | IC50 [1] [nM] | IC50 [2] [nM] |
| --- | --- | --- |
| C#CC[C@H](N)C(=O)N[C@@H](Cc1ccc(O)cc1)C(=O)N[C@H]1CSSC[C@@H]2NC(=O)[C@@H]3CSSC[C@@H](C(=O)N[C@@H](CCCNC(=N)N)C(=O)N[C@@H](CCCCN)C(=O)N[C@@H](CCC(=O)O)C(=O)N[C@H](C(N)=O)[C@@H](C)CC)NC(=O)[C@H](Cc4c[nH]c5ccccc45)NC(=O)[C@H](CC(C)C)NC(=O)[C@H](CCCCN)NC(=O)[C@H](CSSC[C@H](NC(=O)[C@H]([C@@H](C)O)NC(=O)[C@H](Cc4c[nH]c5ccccc45)NC(=O)[C@H](CCCC)NC(=O)[C@H](Cc4ccccc4)NC(=O)[C@H](CCCCN)NC(=O)[C@H](CCC(N)=O)NC1=O)C(=O)N[C@@H](CC(=O)O)C(=O)N[C@@H](CO)C(=O)N[C@@H](CCCCN)C(=O)N[C@@H](CCCNC(=N)N)C(=O)N[C@@H](C)C(=O)N3)NC(=O)[C@H](CCCNC(=N)N)NC(=O)[C@H](CC(C)C)NC(=O)CNC(=O)[C@H](CCC(=O)O)NC2=O | 1.3 | 52 |
| C#CC[C@H](NC(=O)[C@@H](N)CCC(=O)O)C(=O)N[C@H]1CSSC[C@@H]2NC(=O)[C@@H]3CSSC[C@@H](C(=O)N[C@@H](CCCNC(=N)N)C(=O)N[C@@H](CCCCN)C(=O)N[C@@H](CCC(=O)O)C(=O)N[C@H](C(N)=O)[C@@H](C)CC)NC(=O)[C@H](Cc4c[nH]c5ccc(Br)cc45)NC(=O)[C@H](CC(C)C)NC(=O)[C@H](CCCCN)NC(=O)[C@H](CSSC[C@H](NC(=O)[C@H]([C@@H](C)O)NC(=O)[C@H](Cc4c[nH]c5ccccc45)NC(=O)[C@H](CCCC)NC(=O)[C@H](Cc4c[nH]c5ccccc45)NC(=O)[C@H](CCCCN)NC(=O)[C@H](CCC(N)=O)NC1=O)C(=O)N[C@@H](CC(=O)O)C(=O)N[C@@H](CO)C(=O)N[C@@H](CCC(=O)O)C(=O)N[C@@H](CCCNC(=N)N)C(=O)N[C@@H](C)C(=O)N3)NC(=O)[C@H](CCCNC(=N)N)NC(=O)[C@H](CC(C)C)NC(=O)CNC(=O)[C@H](CCC(=O)O)NC2=O | 0.5 | 72 |
| C#CC[C@H](N)C(=O)N[C@@H](Cc1ccc(O)cc1)C(=O)N[C@H]1CSSC[C@@H]2NC(=O)[C@@H]3CSSC[C@@H](C(=O)N[C@@H](CCCNC(=N)N)C(=O)N[C@@H](CCCCN)C(=O)N[C@@H](CCC(=O)O)C(=O)N[C@H](C(N)=O)[C@@H](C)CC)NC(=O)[C@H](Cc4c[nH]c5cc(C)ccc45)NC(=O)[C@H](CC(C)C)NC(=O)[C@H](CCCCN)NC(=O)[C@H](CSSC[C@H](NC(=O)[C@H]([C@@H](C)O)NC(=O)[C@H](Cc4c[nH]c5ccccc45)NC(=O)[C@H](CCCC)NC(=O)[C@H](Cc4c[nH]c5ccccc45)NC(=O)[C@H](CCCCN)NC(=O)[C@H](CCC(N)=O)NC1=O)C(=O)N[C@@H](CC(=O)O)C(=O)N[C@@H](CO)C(=O)N[C@@H](CCCCN)C(=O)N[C@@H](CCCNC(=N)N)C(=O)N[C@@H](C)C(=O)N3)NC(=O)[C@H](CCCNC(=N)N)NC(=O)[C@H](CC(C)C)NC(=O)CNC(=O)[C@H](CCC(=O)O)NC2=O | 19 | – |
| C#CC[C@H](N)C(=O)N[C@@H](Cc1ccc(O)cc1)C(=O)N[C@H]1CSSC[C@@H]2NC(=O)[C@@H]3CSSC[C@@H](C(=O)N[C@@H](CCCNC(=N)N)C(=O)N[C@@H](CCCCN)C(=O)N[C@@H](CCC(=O)O)C(=O)N[C@@H](Cc4ccccc4)C(N)=O)NC(=O)[C@H](Cc4c[nH]c5ccccc45)NC(=O)[C@H](CC(C)C)NC(=O)[C@H](CCCCN)NC(=O)[C@H](CSSC[C@H](NC(=O)[C@H]([C@@H](C)O)NC(=O)[C@H](Cc4c[nH]c5ccccc45)NC(=O)[C@H](CCCC)NC(=O)[C@H](Cc4c[nH]c5ccccc45)NC(=O)[C@H](CCCCN)NC(=O)[C@H](CCC(N)=O)NC1=O)C(=O)N[C@@H](CC(=O)O)C(=O)N[C@@H](CO)C(=O)N[C@@H](CCCCN)C(=O)N[C@@H](CCCNC(=N)N)C(=O)N[C@@H](C)C(=O)N3)NC(=O)[C@H](CCCNC(=N)N)NC(=O)[C@H](CC(C)C)NC(=O)CNC(=O)[C@H](CCC(=O)O)NC2=O | 0.2 | 162 |
| C#CC[C@H](N)C(=O)N[C@@H](Cc1ccc(O)cc1)C(=O)N[C@H]1CSSC[C@@H]2NC(=O)[C@@H]3CSSC[C@@H](C(=O)N[C@@H](CCCNC(=N)N)C(=O)N[C@@H](CCCCN)C(=O)N[C@@H](CCC(=O)O)C(=O)N[C@@H](CC4CCCCC4)C(N)=O)NC(=O)[C@H](Cc4c[nH]c5ccccc45)NC(=O)[C@H](CC(C)C)NC(=O)[C@H](CCCCN)NC(=O)[C@H](CSSC[C@H](NC(=O)[C@H]([C@@H](C)O)NC(=O)[C@H](Cc4c[nH]c5ccccc45)NC(=O)[C@H](CCCC)NC(=O)[C@H](Cc4c[nH]c5ccccc45)NC(=O)[C@H](CCCCN)NC(=O)[C@H](CCC(N)=O)NC1=O)C(=O)N[C@@H](CC(=O)O)C(=O)N[C@@H](CO)C(=O)N[C@@H](CCCCN)C(=O)N[C@@H](CCCNC(=N)N)C(=O)N[C@@H](C)C(=O)N3)NC(=O)[C@H](CCCNC(=N)N)NC(=O)[C@H](CC(C)C)NC(=O)CNC(=O)[C@H](CCC(=O)O)NC2=O | 0.6 | – |
| C#CC[C@H](NC(=O)[C@H](C)N)C(=O)N[C@H]1CSSC[C@@H]2NC(=O)[C@@H]3CSSC[C@@H](C(=O)N[C@@H](CCCNC(=N)N)C(=O)N[C@@H](CCCCN)C(=O)N[C@@H](CCC(=O)O)C(=O)N[C@H](C(N)=O)[C@@H](C)CC)NC(=O)[C@H](Cc4c[nH]c5ccc(Br)cc45)NC(=O)[C@H](CC(C)C)NC(=O)[C@H](CCCCN)NC(=O)[C@H](CSSC[C@H](NC(=O)[C@H]([C@@H](C)O)NC(=O)[C@H](Cc4c[nH]c5ccccc45)NC(=O)[C@H](CCCC)NC(=O)[C@H](Cc4c[nH]c5ccccc45)NC(=O)[C@H](CCCCN)NC(=O)[C@H](CCC(N)=O)NC1=O)C(=O)N[C@@H](CC(=O)O)C(=O)N[C@@H](CO)C(=O)N[C@@H](CCCCN)C(=O)N[C@@H](CCCNC(=N)N)C(=O)N[C@@H](C)C(=O)N3)NC(=O)[C@H](CCCNC(=N)N)NC(=O)[C@H](CC(C)C)NC(=O)CNC(=O)[C@H](CCC(=O)O)NC2=O | 1 | – |
| C#CC[C@H](N)C(=O)N[C@@H](Cc1ccc(O)cc1)C(=O)N[C@H]1CSSC[C@@H]2NC(=O)[C@@H]3CSSC[C@@H](C(=O)N[C@@H](CCCNC(=N)N)C(=O)N[C@@H](CCCCN)C(=O)N[C@@H](CCC(=O)O)C(=O)N[C@H](C(N)=O)[C@@H](C)CC)NC(=O)[C@H](Cc4c[nH]c5ccccc45)NC(=O)[C@H](CC(C)C)NC(=O)[C@H](CCCCN)NC(=O)[C@H](CSSC[C@H](NC(=O)[C@H]([C@@H](C)O)NC(=O)[C@H](Cc4c[nH]c5ccccc45)NC(=O)[C@H](CCCC)NC(=O)[C@H](Cc4c[nH]c5ccc(Br)cc45)NC(=O)[C@H](CCCCN)NC(=O)[C@H](CCC(N)=O)NC1=O)C(=O)N[C@@H](CC(=O)O)C(=O)N[C@@H](CO)C(=O)N[C@@H](CCCCN)C(=O)N[C@@H](CCCNC(=N)N)C(=O)N[C@@H](C)C(=O)N3)NC(=O)[C@H](CCCNC(=N)N)NC(=O)[C@H](CC(C)C)NC(=O)CNC(=O)[C@H](CCC(=O)O)NC2=O | 22 | – |
| C#CC[C@H](N)C(=O)N[C@@H](Cc1ccc(O)cc1)C(=O)N[C@H]1CSSC[C@@H]2NC(=O)[C@@H]3CSSC[C@@H](C(=O)N[C@@H](CCCNC(=N)N)C(=O)N[C@@H](CCCCN)C(=O)N[C@@H](CCC(=O)O)C(=O)N[C@H](C(N)=O)[C@@H](C)CC)NC(=O)[C@H](Cc4c[nH]c5ccccc45)NC(=O)[C@H](CC(C)C)NC(=O)[C@H](CCCCN)NC(=O)[C@H](CSSC[C@H](NC(=O)[C@H]([C@@H](C)O)NC(=O)[C@H](Cc4c[nH]c5ccccc45)NC(=O)[C@H](CCCC)NC(=O)[C@H](Cc4ccc5ccccc5c4)NC(=O)[C@H](CCCCN)NC(=O)[C@H](CCC(N)=O)NC1=O)C(=O)N[C@@H](CC(=O)O)C(=O)N[C@@H](CO)C(=O)N[C@@H](CCCCN)C(=O)N[C@@H](CCCNC(=N)N)C(=O)N[C@@H](C)C(=O)N3)NC(=O)[C@H](CCCNC(=N)N)NC(=O)[C@H](CC(C)C)NC(=O)CNC(=O)[C@H](CCC(=O)O)NC2=O | 22 | – |
| C#CC[C@H](N)C(=O)N[C@@H](Cc1ccc(O)cc1)C(=O)N[C@H]1CSSC[C@@H]2NC(=O)[C@@H]3CSSC[C@@H](C(=O)N[C@@H](CCCNC(=N)N)C(=O)N[C@@H](CCCCN)C(=O)N[C@@H](CCC(=O)O)C(=O)N[C@H](C(N)=O)[C@@H](C)CC)NC(=O)[C@H](Cc4c[nH]c5ccc(Br)cc45)NC(=O)[C@H](CC(C)C)NC(=O)[C@H](CCCCN)NC(=O)[C@H](CSSC[C@H](NC(=O)[C@H]([C@@H](C)O)NC(=O)[C@H](Cc4c[nH]c5ccccc45)NC(=O)[C@H](CCCC)NC(=O)[C@H](CCc4ccccc4)NC(=O)[C@H](CCCCN)NC(=O)[C@H](CCC(N)=O)NC1=O)C(=O)N[C@@H](CC(=O)O)C(=O)N[C@@H](CO)C(=O)N[C@@H](CCCCN)C(=O)N[C@@H](CCCNC(=N)N)C(=O)N[C@@H](C)C(=O)N3)NC(=O)[C@H](CCCNC(=N)N)NC(=O)[C@H](CC(C)C)NC(=O)CNC(=O)[C@H](CCC(=O)O)NC2=O | 1 | – |
| C#CC[C@H](N)C(=O)N[C@@H](Cc1ccc(O)cc1)C(=O)N[C@H]1CSSC[C@@H]2NC(=O)[C@@H]3CSSC[C@@H](C(=O)N[C@@H](CCCNC(=N)N)C(=O)N[C@@H](CCCCN)C(=O)N[C@@H](CCC(=O)O)C(=O)N[C@H](C(N)=O)[C@@H](C)CC)NC(=O)[C@H](Cc4c[nH]c5ccccc45)NC(=O)[C@H]([C@@H](C)CC)NC(=O)[C@H](CCCCN)NC(=O)[C@H](CSSC[C@H](NC(=O)[C@H]([C@@H](C)O)NC(=O)[C@H](Cc4c[nH]c5ccccc45)NC(=O)[C@H](CCCC)NC(=O)[C@H](Cc4c[nH]c5ccccc45)NC(=O)[C@H](CCCCN)NC(=O)[C@H](CCC(N)=O)NC1=O)C(=O)N[C@@H](CC(=O)O)C(=O)N[C@@H](CO)C(=O)N[C@@H](CCCCN)C(=O)N[C@@H](CCCNC(=N)N)C(=O)N[C@@H](C)C(=O)N3)NC(=O)[C@H](CCCNC(=N)N)NC(=O)[C@H](CC(C)C)NC(=O)CNC(=O)[C@H](CCC(=O)O)NC2=O | 1.1 | – |
